≈ marks a conversion by molar mass, not a printed value. Where a name gives a salt, the structure may show the parent alone. One block for each compound: values may come before it.
Columns and labels:
[1] = Solubility in water at 25° C. (saturated solution, residual mass after infrared drying); assay type: physicochemical; conditions: for Solubility (amino acid) / maximum solubilities obtained in water / Solubility 25° C. in g/kg (corresponding keto acid): water; for Solubility (amino acid) / Solubility 25° C. in g/kg (corresponding keto acid): 25° C.; for maximum solubilities obtained in water: separate experiments
Procedure: After sedimentation, the solution was dried using infrared (120° C., 120 min) and the residual mass was determined in g/kg.

physchem = conditions: for solubility at 10 min: 25 °C, pH 7, aqueous with cosolvent or surfactant or cyclodextrin, thermodynamic from solid
Procedure: Increasing amounts of the keto acids and salts thereof were added to a cell culture feed formulation (Cellvento® 4Feed, MilliporeSigma) depleted in Ile and Leu. Similarly, increasing amount of Ile and Leu were added to the same feed formulation as a control. The total concentration of this feed formulation was 125 g/L and the pH was 7.0+/−0.2. In small scale experiments, after each addition of either the amino acid or the keto acid, the feed was agitated for 10 mins and turbidity was measured. The experiments were performed at room temperature (25° C.).

[2] = system: CHOK1GS suspension cell line expressing a human IgG1; assay: 17-days fed-batch process with keto acid replacing amino acid in the feed; assay type: cell-based; conditions: for amount of NH3 produced compared to control: 17-days fed-batch
Procedure: For cell culture experiments, a CHOK1GS suspension cell line expressing a human IgG1, was used. Cells were cultivated in quadruplicate in Cellvento 4CHO medium (Merck Darmstadt, Germany) using 50 mL spin tubes with a starting culture volume of 30 mL and a seeding density of 2×10^5 cells/mL. Incubation was carried out at 37° C., 5% CO2, 80% humidity and an agitation of 320 rpm. The keto acids were added in the Feed (4Feed depleted in Ile and leu) instead of their respective amino acids. The pH of all the feeds was neutral (pH 7.0+/−0.2). The positive control contained the normal amino acids whereas the negative control contained the feed depleted in the respective amino acid and without addition of keto acid. Feeding was carried out at days 3, 5, 7, 10 and 14 at the following v/v ratios (3, 3, 6, 3 and 3%). Glucose was quantified daily and adjusted to 6 g/L using a 400 g/L glucose solution. The experiment was repeated at least 3 times.
The viable cell density (VCD) and viability were evaluated with a Vi-CELL XR (Beckman Coulter, Fullerton, Calif.). Metabolite concentrations were monitored using a Cedex Bio HT (Roche Diagnostics, Mannheim, Germany) based on spectrophotometric and turbidometric methods. Quantification of amino acids was carried out via UPLC after derivatization with the AccQ⋅TagUltra® reagent kit. Derivatization, chromatography and data analysis were carried out following the supplier recommendations (Waters, Milford, Mass.).
The productivity per cell per day was calculated daily by dividing the titer by the corrected integral VCD to take into account the dilution resulting from feeding. The overall specific productivity was determined by calculating the slope from the linear regression between titer and corrected integral VCD.

[3] = Feed stability: NH3 formed during 3 months storage (AUC of NH3 concentration); assay type: physicochemical; conditions: for less ammonia produced compared to control: 4° C.; for reduced ammonia level compared to control: RT
Procedure: Finally, the amount of ammonium ions formed during storage of the feed containing keto acids at 4° C. or RT was lower when compared to the feed containing the normal amino acids. To be able to evaluate the formation of the NH3 over the entire period of the stability study, the AUC of the NH3 concentration was calculated for the timeframe of 3 months to compare the conditions.

CHOK1GS cell line [4] = assay: Batch experiments with higher seeding densities and different Leu/keto Leu ratios; assay type: cell-based
Procedure: In a similar way, batch experiments with higher cell seeding densities were performed in media containing different ratios of Leu/keto Leu to understand which ratios are preferable when starting with higher cell densities (FIG. 16). The analytic used was the same as described above.
Finally, batch experiments with higher cell densities were performed to determine whether keto Leu is readily available when starting with high seeding densities or if a minimum concentration of free leucine has to be present to support growth and productivity in these conditions. For this experiment, a CHOK1GS cell line was seeded at 0.3, 0.6 or 1.10^6 cells/mL in a medium containing 0, 25, 50, 75, or 100% of keto Leu, the rest being added in form of Leucine.

[5] = system: CHODG44 cell line expressing an IgG1; assay: Fed-batch with keto Leu, CHODG44; assay type: cell-based
[6] = Feed stability: change in color, AUC of absorbance 300-600 nm over 90 days; assay type: physicochemical
Procedure: The stability of a feed containing Ile and Leu (Cellvento® 4Feed) was compared to the stability of the same feed depleted in Ile/Leu and with supplementation of either keto Leu or keto Ile. The feeds were prepared according to the standard protocol. The final pH was 7.0+/−0.2 and the feeds were stored at 4° C. or RT protected or exposed to light. The change in color of the formulations were monitored during 90 days by measuring the absorbance in the range from 300 nm to 600 nm (intervals of 5 nm). Conditions were compared by calculating the area under the curve (AUC) over time (between D0 and D90) of the baseline corrected area under the curve of the absorbance scan (300 nm-600 nm).

CHOK1GS cell line [7] = assay: Serial passaging and batch experiment in Leu/Ile depleted Cellvento 4CHO with keto acids; assay type: cell-based; conditions: for initial keto acid concentration detected in form of the amino acid: day 3
Source text: To confirm that this is applicable in CHO systems, keto Leu or keto Ile were used as replacement for Leu and Ile respectively in a cell culture medium (Cellvento® 4CHO). A Leu/Ile depleted version of the formulation was produced and equimolar concentrations of keto Leu vs Leu and keto Ile vs Ile were used (FIG. 15). Cell growth and viability of a CHOK1GS cell line were monitored over several weeks in serial passaging experiments to make sure that the growth is not due to residual amounts of Leu or Ile. A batch experiment with a seeding density of 0.2 million cells/mL was designed and IgG production was measured over time. The production of the amino acids was followed with time using amino acids quantification in the spent medium.

[8] = Feed stability: precipitation during storage; assay type: physicochemical
Procedure: In addition, when using keto Leu instead of Leu in the feed, the precipitation of the feed was delayed. To observe precipitation, the 50 mL falcon tubes were turned back to see possible sedimentation on the bottom of the tube and pictures were taken. […] A complete inhibition of precipitation was not observed at RT exposed to light but the precipitation was delayed in the keto Leu condition. Whereas precipitation was observed starting at D49 for the control condition, initial precipitation appeared at D70 for the keto Leu condition.

[9] = FB culture with other keto acids replacing their amino acid in the feed; assay type: cell-based
Source text: Other keto acids have been tested as replacement for their respective amino acids in FB experiments. A very similar behavior compared to Ile and Leu was observed when Val was replaced by keto Val in the feed (FIG. 17). Indeed, similar VCD and titer were observed compared to the positive control whereas the feed depleted in Val leads to a drastic decrease in the VCD, as well as a very low titer after day 7. […] Due to the structural similarity to keto Ile and keto Leu, the effect of keto Val on overall feed concentration and feed stability is similar to the other branched chain keto acids. 6× higher solubility when compared to Val was confirmed in water.
For phenylalanine (Phe) and its respective keto acid phenylpyruvate (FIG. 18), the amination reaction to build Phe in cell culture seemed to be slower than the amination reactions occurring for branched chain keto acids. […] Following that result, a condition where 2× the molar equivalent of Phe was used as a concentration of phenylpyruvate in the feed.

[10] = batch, seeding density 0.2 million cells/mL
[11] = equivalent molar concentration (1×)
[12] = Val replaced by keto Val in the feed

Solubility (amino acid) [1]: 26.8 g/kg
SMILES: N[C@@H](Cc1ccccc1)C(=O)O [Phenylalanine, reference compound]

Solubility (amino acid) [1]: 52.9 g/kg
SMILES: CSCC[C@H](N)C(=O)O [Methionine, reference compound]

maximum solubilities obtained in water [1]: 22.1 g/kg
Solubility (amino acid) [1]: 22.1 g/kg
solubility at 10 min (physchem): ~90 mM (≈ 11.8 mg/mL)
SMILES: CC(C)C[C@H](N)C(=O)O [Leucine, reference compound]

Solubility (amino acid) [1]: 32.4 g/kg
solubility at 10 min (physchem): ~105 mM (≈ 13.8 mg/mL)
SMILES: CC[C@H](C)[C@H](N)C(=O)O [Isoleucine, reference compound]

maximum solubilities obtained in water [1]: 313.7 g/kg
Solubility 25° C. in g/kg (corresponding keto acid) [1]: 313.7 g/kg
less ammonia produced compared to control ([3]; light exposed): 19%
less ammonia produced compared to control ([3]; light protected): 10%
reduced ammonia level compared to control ([3]; light exposed): 5%
reduced ammonia level compared to control ([3]; light protected): 15%
decrease of AUC (change in color) vs control ([6]; 4° C., light exposed): 8%
decrease of AUC (change in color) vs control ([6]; 4° C., light protected): 27%
decrease of AUC (change in color) vs control ([6]; RT, light exposed): 37%
decrease of AUC (change in color) vs control ([6]; RT, light protected): 31%
times more soluble than the amino acid (physchem): 2.6 times
solubility at 10 min (physchem): 240 mM
amount and color intensity of precipitate vs control ([8]; RT light exposed, days after D70): lower
precipitation ([8]; RT light protected): no precipitation
SMILES: CC(C)CC(=O)C(=O)[O-].[Na+] [keto Leu, 4-Methyl-2-oxopentanoic acid sodium salt]
amount of NH3 produced compared to control [2]: significantly reduced
concentration of Leu in the spent medium vs positive control ([2]; Leu replaced with keto Leu): slightly lower
keto Leu share at which highest VCD was observed (CHOK1GS cell line [4]; seeding 0.6.10^6 and 0.3.10^6 cells/mL): 50%
titer between ratios keto Leu/Leu (CHOK1GS cell line [4]; seeding at 0.3 and 1.10^6 cells/mL): no significant difference
IgG concentration between ratios keto Leu/Leu (CHOK1GS cell line [4]; seeding at 0.6.10^6 cells/mL): slight trend
keto Leu exchange at which maximum VCD was observed (CHOK1GS cell line [4]; seeding density 1.10^6 cells/mL): 100%
IgG titer compared to control [5]: slightly lower
Leu concentration in spent media vs control [5]: nearly similar
VCD compared to control [5]: lower VCD
overall specific productivity [5]: slightly increased
growth / performance vs control (CHOK1GS cell line [7]; [10]): comparable
initial keto acid concentration detected in form of the amino acid (CHOK1GS cell line [7]; spent medium): 34%

Solubility 25° C. in g/kg (corresponding keto acid) [1]: 480 g/kg
less ammonia produced compared to control ([3]; light exposed): 24%
less ammonia produced compared to control ([3]; light protected): 21%
reduced ammonia level compared to control ([3]; light exposed): 25%
reduced ammonia level compared to control ([3]; light protected): 28%
decrease of AUC (change in color) vs control ([6]; 4° C., light exposed): 68%
decrease of AUC (change in color) vs control ([6]; 4° C., light protected): 33%
decrease of AUC (change in color) vs control ([6]; RT, light exposed): 38%
decrease of AUC (change in color) vs control ([6]; RT, light protected): no decrease
times more soluble than the amino acid (physchem): at least 6 times
solubility at 10 min (physchem): ≥ 635 mM
SMILES: CCC(C)C(=O)C(=O)[O-].[Na+] (stereo not drawn) [keto Ile, 3-Methyl-2-oxopentanoic acid sodium salt]
amount of NH3 produced compared to control [2]: significantly reduced
allo-Ile peak in spent medium ([2]; Ile replaced with keto Ile): increased with time
concentration of Ile in the spent medium vs positive control ([2]; Ile replaced with keto Ile): significantly lower
IgG vs control (CHOK1GS cell line [7]; [10]): slightly impaired
growth / performance vs control (CHOK1GS cell line [7]; [10]): slightly impaired
initial keto acid concentration detected in form of the amino acid (CHOK1GS cell line [7]; spent medium): 21%
initial keto Ile concentration detected in the form of allo-Ile (CHOK1GS cell line [7]; spent medium, up to day 10): 35%

Solubility 25° C. in g/kg (corresponding keto acid) [1]: >500 g/kg
SMILES: CSCCC(=O)C(=O)O [Alpha keto gamma methylthiobutyric acid sodium salt]

Solubility 25° C. in g/kg (corresponding keto acid) [1]: 72 g/kg
SMILES: O=C([O-])C(=O)Cc1ccccc1.[Na+] [phenylpyruvate, Phenylpyruvic acid sodium salt]
Phe in the spent medium vs control ([9]; 2× the molar equivalent of Phe): very similar amount
VCD vs control ([9]; 2× the molar equivalent of Phe): restore
titer vs control ([9]; 2× the molar equivalent of Phe): restore
Phe in the supernatant compared to negative control [9, 11]: more Phe
final reduction of titer [9, 11]: 20%
VCD vs control ([9]; equivalent molar concentration (1×), after day 5): significant lower VCD

maximum solubilities obtained in water [1]: 86.0 g/kg
SMILES: CC(C)C[C@H](N)C(=O)[O-].[Na+] [Leu sodium salt, reference compound]

higher solubility when compared to Val ([1]; in water): 6 ×
Solubility 25° C. in g/kg (corresponding keto acid) [1]: 362 g/kg
SMILES: CC(C)C(=O)C(=O)[O-].[Na+] [keto Val, α-Ketoisovaleric acid sodium salt]
NH3 concentration [9, 12]: lower
VCD compared to positive control [9, 12]: similar
titer compared to positive control [9, 12]: similar

Solubility (amino acid) [1]: 58.5 g/kg
SMILES: CC(C)[C@H](N)C(=O)O [Valine, reference compound]

Source: patent US20220204918A1, “CELL CULTURE MEDIA COMPRISING KETO ACIDS” (MERCK PATENT GMBH, priority 2019, published 2022)
